Test results: patent publication US12410185B2, “Compounds targeting mutant calreticulin” (MYELOPRO DIAGNOSTICS AND RESEARCH GmbH, priority 2018, dated 2025)
Where two headings read alike, the source gives them in different places.

Columns and labels:
CALR mutant cell lines = assay: cells; conditions: for IC50: read-out: IC50 in mutant cell lines
Experimental: (§1) Ba/F3 and UT-7-TPO were plated 5.000 cells/well and 16.000 cells/well into 96-well plates with the desirable concentrations of compounds or cytokines added to a total volume of 100 ul. 72 hours later, the CellTiter-Glo luminescent Cell Viability Assay (Promega) was used to determine the cell viability. The luminescent signal was detected by a VICTOR Multilabel Plate Reader (PerkinElmer). Dose response data was analyzed by Graphpad Prism 7.0.
(§2) To further explore the chemical space of the compound, a few hematoxylin analogues were also tested (FIGS. 15 to 17). […] The compounds Protosappanin B (A-4) and RJ002 (B-2) were also tested. […] As a comparison, the clinically used chemotherapeutic drugs hydroxyurea and ruxolitinib were also tested in the cell models.

CALR wild-type cell line = assay: 72 h dose response of hematoxylin, analogues and control compounds; format: cell-based; conditions: 72 h assay
Experimental: as §1, §2

[1] = solubility in 10 mM stock solution; format: physicochemical; conditions: compounds dissolved in DMSO
Experimental: All tested compounds were dissolved in DMSO.
(§3) These included HEM8 (B-18), HEM11 (B-19), HEM30 (B-20), HEM36 (B-26), HEM44 (B-34) and HEM46 (B-36) which were used at 1/10 of the concentration (1 uM for Ba/F3 and 3 uM for UT-7).

Ba/F3 cells = assay: cytotoxicity screen of further hematoxylin derivatives; format: cell-based, mouse; conditions: 10 uM (1 uM for compounds insoluble in 10 mM stock)
Experimental: (§4) Cytotoxicity screens were performed essentially as described in Example 1.
as §3

UT-7 cells = assay: as above; format: cell-based; conditions: 30 uM (3 uM for compounds insoluble in 10 mM stock)
Experimental: as §4, §3

[2] = system: mutant cell line (UT-7 cells); assay: IC50 of further hematoxylin derivatives (Table 3); format: cell-based; conditions: Homo sapiens
Experimental: as §4

[3] = system: WT cell line (UT-7 cells); assay: IC50 of further hematoxylin derivatives (Table 3); format: cell-based; conditions: Homo sapiens
Experimental: as §4

[4] = UT7, UT-7 cells, read-out: IC50 mutant cell line
[5] = UT7, UT-7 cells, read-out: IC50 WT cell line

Question: What does the source list for `Oc1ccc2c(c1)OC[C@]1(O)Cc3cc(O)c(O)cc3[C@H]21` [Brazilin (A-2), Brazilin]?
Answer: cytotoxic selectivity for mutant vs wild-type cell lines (CALR mutant cell lines): comparable cytotoxic selectivity; IC50 (CALR mutant cell lines; 72 h): 1.9 µM; IC50 (CALR wild-type cell line; read-out: IC50 in wild-type cell line): 6.2 µM

Question: For `O=C(Oc1cc2c(cc1OC(=O)c1cccc(N3C(=O)/C(=C/c4cccc(F)c4)SC3=S)c1)[C@@H]1c3ccc(OC(=O)c4cccc(N5C(=O)/C(=C/c6cccc(F)c6)SC5=S)c4)c(OC(=O)c4cccc(N5C(=O)/C(=C/c6cccc(F)c6)SC5=S)c4)c3OC[C@]1(O)C2)c1cccc(N2C(=O)/C(=C/c3cccc(F)c3)SC2=S)c1` [HEM8 (B-18)], which “solubility in a 10 mM stock solution” value [1] is on record?
Answer: Its value is “insoluble in a 10 mM stock solution”.

Question: Which “solubility in a 10 mM stock solution” value [1] does the source give for `O=C(CCN1C(=O)/C(=C/c2ccc(Cl)cc2)SC1=S)Oc1cc2c(cc1OC(=O)CCN1C(=O)/C(=C/c3ccc(Cl)cc3)SC1=S)[C@@H]1c3ccc(OC(=O)CCN4C(=O)/C(=C/c5ccc(Cl)cc5)SC4=S)c(OC(=O)CCN4C(=O)/C(=C/c5ccc(Cl)cc5)SC4=S)c3OC[C@]1(O)C2` [HEM11 (B-19)] here?
Answer: The value was “insoluble in a 10 mM stock solution”.

Question: Which “solubility in a 10 mM stock solution” value [1] does the source give for `O=C(Oc1cc2c(cc1OC(=O)c1ccc(/C=C3\SC(=S)N(c4ccc(F)cc4)C3=O)cc1)[C@@H]1c3ccc(OC(=O)c4ccc(/C=C5\SC(=S)N(c6ccc(F)cc6)C5=O)cc4)c(OC(=O)c4ccc(/C=C5\SC(=S)N(c6ccc(F)cc6)C5=O)cc4)c3OC[C@]1(O)C2)c1ccc(/C=C2\SC(=S)N(c3ccc(F)cc3)C2=O)cc1` [HEM30 (B-20)] here?
Answer: Its value is “insoluble in a 10 mM stock solution”.

Question: What about the “selectivity and potency in cytotoxicity screen” value (shortened to “selectivity and potency”) (Ba/F3 cells) of the same molecule?
Answer: The value was “Best results in terms of selectivity and potency”.

Question: Which results are given for `CN1C(=O)/C(=C/c2ccc(C(=O)Oc3cc4c(cc3OC(=O)c3ccc(/C=C5\SC(=S)N(C)C5=O)cc3)[C@@H]3c5ccc(OC(=O)c6ccc(/C=C7\SC(=S)N(C)C7=O)cc6)c(OC(=O)c6ccc(/C=C7\SC(=S)N(C)C7=O)cc6)c5OC[C@]3(O)C4)cc2)SC1=S` [HEM32 (B-22)]?
Answer: selectivity and potency in cytotoxicity screen (UT-7 cells): Best results in terms of selectivity and potency; IC50 [2, 4]: 16.1 µM; IC50 [3, 5]: 18.8 µM

Question: For `O=C(Oc1cc2c(cc1OC(=O)c1ccc(Cl)cc1)[C@@H]1c3ccc(OC(=O)c4ccc(Cl)cc4)c(OC(=O)c4ccc(Cl)cc4)c3OC[C@]1(OC(=O)c1ccc(Cl)cc1)C2)c1ccc(Cl)cc1` [HEM36 (B-26)], which “solubility in a 10 mM stock solution” value [1] is on record?
Answer: The value was “insoluble in a 10 mM stock solution”.

Question: With `CC(C)C(=O)Oc1cc2c(cc1OC(=O)C(C)C)[C@@H]1c3ccc(OC(=O)C(C)C)c(OC(=O)C(C)C)c3OC[C@]1(O)C2` [HEM40 (B-30)] as the molecule, how does the “selectivity and potency” value (UT-7 cells) read?
Answer: Its value is “Best results in terms of selectivity and potency”.

Question: What about the IC50 [2, 4] of the same molecule?
Answer: The IC50 was 12 µM.

Question: And the IC50 [3, 5]?
Answer: Its IC50 is 14.5 µM.

Question: Which results are given for `CCC(=O)Oc1cc2c(cc1OC(=O)CC)[C@@H]1c3ccc(OC(=O)CC)c(OC(=O)CC)c3OC[C@]1(O)C2` [HEM42 (B-32)]?
Answer: selectivity and potency in cytotoxicity screen (UT-7 cells): Best results in terms of selectivity and potency; IC50 [2, 4]: 20.8 µM; IC50 [3, 5]: 26.2 µM

Question: With `O=C(Oc1cc2c(cc1OC(=O)C(Cl)Cl)[C@@H]1c3ccc(OC(=O)C(Cl)Cl)c(OC(=O)C(Cl)Cl)c3OC[C@]1(O)C2)C(Cl)Cl` [HEM44 (B-34)] as the molecule, how does the “solubility in a 10 mM stock solution” value [1] read?
Answer: Its value is “insoluble in a 10 mM stock solution”.

Question: With `CC(C)CC(=O)Oc1cc2c(cc1OC(=O)CC(C)C)[C@@H]1c3ccc(OC(=O)CC(C)C)c(OC(=O)CC(C)C)c3OC[C@]1(O)C2` [HEM46 (B-36)] as the molecule, how does the “solubility in a 10 mM stock solution” value [1] read?
Answer: Its value is “insoluble in a 10 mM stock solution”.

Question: For `CCCC(=O)Oc1cc2c(cc1OC(=O)CCC)[C@@H]1c3ccc(OC(=O)CCC)c(OC(=O)CCC)c3OC[C@]1(O)C2` [HEM47 (B-37)], which “selectivity and potency” value (UT-7 cells) is on record?
Answer: The value was “Best results in terms of selectivity and potency”.

Question: And the IC50 ([2]; UT7, read-out: IC50 mutant cell line)?
Answer: Its IC50 is 12.4 µM.

Question: What about the IC50 ([3]; UT7, read-out: IC50 WT cell line) of the same molecule?
Answer: Its IC50 is 14.7 µM.

Question: With `CC(C)(C)C(=O)Oc1cc2c(cc1OC(=O)C(C)(C)C)[C@@H]1c3ccc(OC(=O)C(C)(C)C)c(OC(=O)C(C)(C)C)c3OC[C@]1(O)C2` [HEM48 (B-38)] as the molecule, how does the “selectivity and potency” value (Ba/F3 cells) read?
Answer: The value was “Best results in terms of selectivity and potency”.

Question: For `NC(=O)NO` [Hydroxyurea, reference compound], which “cytotoxic selectivity for mutant vs wild-type cell lines” value (from here on “cytotoxic selectivity for mutant”) (CALR mutant cell lines) is on record?
Answer: Its value is “did not show any selective killing effect”.

Question: With `CC(=O)Oc1cc2c(cc1OC(C)=O)[C@@H]1c3ccc(OC(C)=O)c(OC(C)=O)c3OC[C@]1(OC(C)=O)C2` [L-HEM1 (B-1)] as the molecule, how does the “cytotoxic selectivity for mutant” value (CALR mutant cell lines) read?
Answer: Its value is “compromise both potency and selectivity”.

Question: With `COc1cc2c(cc1OC)C1c3ccc(OC)c(OC)c3OCC1(O)C2` (centres unmarked) [NSC7251 (A-5)] as the molecule, how does the “cytotoxic selectivity for mutant” value (CALR mutant cell lines) read?
Answer: The value was “compromise both potency and selectivity”.

Question: Which “cytotoxic selectivity for mutant” value (CALR mutant cell lines) does the source give for `N#CC[C@H](C1CCCC1)n1cc(-c2ncnc3[nH]ccc23)cn1` [ruxolitinib, Ruxolitinib, reference compound] here?
Answer: The value was “mild selective effect”.

Question: And the IC50 (CALR mutant cell lines; 72 h)?
Answer: Its IC50 is 0.195 µM.

Question: What about the “IC50 reduction in the mutant cell lines compared to wild-type cells” value (CALR mutant cell lines; 72 h assay) of the same molecule?
Answer: Its value is “about 2 fold”.

Question: And the IC50 (CALR wild-type cell line; read-out: IC50 in wild-type cells)?
Answer: Its IC50 is 0.4 µM.

Question: With Hematein [Hematein (A-3)] as the molecule, how does the “cytotoxic selectivity for mutant” value (CALR mutant cell lines) read?
Answer: The value was “retained the cytotoxic selectivity”.

Question: And the IC50 (CALR mutant cell lines; 72 h assay)?
Answer: The IC50 was 7.5 µM.
